Data set [1] deals with rat's hepatocytes. Put plainly: Inhibition of GPT elution from cultivated liver cells treated with hepatocyte-damaging substances. The class given is cell-based. The text has this: The effect on relieving the culture damage induced by adding hepatocyte-damaging substances and SK-818 to hepatocyte culture systems was examined by measuring the activity of glutamic-pyruvic transaminase (GPT) eluates obtained by cellular disorders. How much the elution of GPT was inhibited was used as an index to the hepatoxicity-relieving effect.
The following four substances were used as the hepatocyte-damaging (hepatoxic) substances. • (a) Galactosamine - "J. Natur. Prod.", 46, 841, 1983. • (b) Calcium ionophore - "Pharmacognosy", 39, 218, 1985. • (c) Cumene hydroperoxide - "Planta Med.", 51, 50, 1985. • (d) 1-Naphthylisothiocyanate.
The extraction and culture of a single layer of rat's hepatocytes were carried out by the procedures described by Nakamura et al in "Protein, Nucleic Acid and Oxygen", Extra Number No. 24, pp. 55-74, 1981.
Single layers of rats' hepatocytes were cultured for certain periods of time:- 0 hour for a galactosamine group, 20.5 hours for calcium ionophore and cumene hydroperoxide groups, and 14.5 hours for a 1-naph isocyanate group. Afterwards, the hepatocyte-damaging substances were added to the culture media at the respective desired concentrations:- 0.35 mM for (a); 10 »m for (b), 0.5 mM for (c) and 188 »m for (d)), which were then cultured for the respective given periods of time:- 38 hours for the group (a), 1 hour for (b), 1 hour for (c) and 12 hours for (d).
SK-818 was dissolved in bovine embryo serum, and the serum solution was then added to each medium at the respective stages of culture by the following three methods; • (a) it was added to the pre-culture medium prior to the addition of the hepatocyte-damaging substance (called the pre-addition); • (b) it was added to the culture medium simultaneously with the addition of the hepatocyte-damaging substance (called the simultaneous addition); and • (c) it was added to the pre-culture and culture media (called the total addition).
The activity of the GPT eluates produced by cytotoxicity in the media was measured by a GPT measuring kit. Then, GPT reductions in % were found by the following equation: [formula] wherein A is the activity in Karmen units of GPT in a culture medium to which no hepatocyte-damaging substance is added, B is the activity in Karmen units of GPT in a culture medium to which the hepatocyte-damaging substance is added; and C is the activity in Karmen units of GPT in a culture medium to which the hepatocyte-damaging substance is added together with 3-oxygermylpropionic acid.

Data set [2] concerns mice. Description: Acute toxicity test, per os, mice. Format: in vivo. The source says: (§1) With (a) the 3-oxygermylpropionic acid according to this invention (hereinafter called SK-818) and (b) the composition of Preparation Ex. 1, SD rats and mice were subjected to acute and subacute (chronic) toxicity tests in conventional manner. (Groups of animals, 8-10 per group, were used for experimentation).

Data set [3] deals with Wistar masculine rats. Description: Relief of nephrotoxicity of mercuric chloride. The class given is in vivo. How it is done: The effect of SK-818 on the impairment of kidney-function by mercuric chloride was examined, using blood-urinary nitrogen levels as an index.
Mercuric chloride was subcutaneously administered to Wistar masculine rats (seven weeks of age) 6-10 per group, at a dose of 1.2 mg/kg. From 24 hours after the administration till the lapse of 96 hours, the animals were permitted to freely drink an aqueous solution containing 2,400 ppm of SK-818 (at an average dose of 231±14 mg/kg). […]

The test system of data set [4] is SD rats and mice. Description: Acute toxicity test, general symptoms. Format: in vivo.
From the text: as §1
Between (a) SK-818 and (b) the composition of Preparation Ex. 1 there was no significant difference in acute toxicity.

Data set [5] has as its system SD masculine rats. Description: Subacute toxicity, oral, three months. Format: in vivo. On the procedure:
as §1
(a) SK-818 and (b) the composition of Preparation Ex. 1 were administered orally to SD masculine rats at doses of 256, 380, 640, 1300, 1600 and 4000 mg/kg/day over three months to determine the doses at which there was no toxic influence on the animals and the animals were absolutely poisoned, respectively.

In data set [6] the test system is ddy masculine mouse. Description: Amnesia induced by carbon dioxide, passive avoidance in bright/dark box. The class given is in vivo. The note with it: Group B: SK-818 + Foot Shocks + CO₂ Gas, 10.0 mg/kg/day orally from 3 days before. How it is done:
A ddy masculine mouse was encaged in a […] of a testing box (comprising bright and dark chambers, each measuring 15.0 x 17.5 x 18.5 cm and provided with an inlet/outlet combination of 6.0 x 6.0 cm, and the time which it took the animal to walk into the dark chamber (the reaction potential time during acquisition, hereinafter referred to as A.T.) was then measured. From just after the animal walked into the dark chamber, foot shocks of 2.5 mA were continuously applied to the animal through a floor grid with a shock generator scrambler, made by Astech Co., Ltd., until the animal walked into the bright chamber. Immediately after the acquisition trial, the animal was encaged in a desiccator, and 15 l/min of CO₂ gas were injected into the desiccator for 40 to 45 seconds for suffocation. After the animal was removed from the desiccator, artificial aspiration was immediately tried thereon. The animal was then put back in a home cage.
After 24 hours of the acquisition trial, the animal was again encaged in the bright chamber of the testing box to measure the time which it took the animal to walk into the dark chamber (or the reaction potential time during the retention trial, hereinafter referred to as R.T.). SK-818, in the form of a mixture with feed, had been administered orally to the animal from 3 days before at a dose of 10.0 mg/kg/day.

The subject of data set [7] is SD rats. Put plainly: Acute toxicity test, per os, rats. The class given is in vivo.
From the text: as §1

Setting [8] is: orally, daily over three months.

Consider 3-oxygermylpropionic acid [SK-818], for which the GPT reductions worked out at 79% in data set [1] (1-naphthylisothiocynate 188 »m, simultaneous addition); 67% in data set [1] (1-naphthylisothiocynate 188 »m, total addition); 27% in data set [1] (calcium ionophore 10 »m, simultaneous addition); 36% in data set [1] (calcium ionophore 10 »m, total addition); 63% in data set [1] (cumene hydroperoxide 0.5 mM, simultaneous addition); 42% in data set [1] (cumene hydroperoxide 0.5 mM, total addition). For the same substance, the GPT reductions in data set [1] (galactosamine 0.35 mM, simultaneous addition) worked out at 29%. Further, the GPT reduction result in data set [1] (only pre-addition, before the hepatocyte-damaging substance) is listed as “No GPT reduction”. Moreover, the LD50 was 5,800 or more mg/kg in data set [2] (female), 5,600 or more mg/kg in data set [2] (male), 7,050 or more mg/kg in data set [7] (female) and 7,700 or more mg/kg in data set [7] (male). Moreover, the Blood-urinary nitrogen in data set [3] (0 hour, mercuric chloride 1.2 mg/kg s.c.) was determined as 15.1 ± 0.4 mg/dL; in data set [3] (24 hours after mercuric chloride, drinking of 2400ppm aqueous solution starts at 24 hours), 31.9 ± 1.3 mg/dL; in data set [3] (48 hours after mercuric chloride, 2400ppm aqueous solution), 50.6 ± 9.8 mg/dL; in data set [3] (72 hours after mercuric chloride, 2400ppm aqueous solution), 45.9 ± 13.8 mg/dL; in data set [3] (92 hours after mercuric chloride, 2400ppm aqueous solution), 30.9 ± 9.4 mg/dL. Besides, the general symptoms entry in data set [4] was “general symptoms of tranquilization, diarrhoea, vomiting and typhlectasis”. The mortality entry in data set [5] (At 4000 mg/kg, orally over three months) was “some animals died”. In data set [5] (setting [8]), the “dose at which the animals were absolutely poisoned” value was found to be 1600 mg/kg. Moreover, in data set [5] (setting [8]), the “dose which had no toxic influence on the animals” value is on record as 256 mg/kg. The “A.T. (reaction potential time during acquisition)” value in data set [6] is 48.5 ± 9.1 s. Besides, the “R.T. (reaction potential time during the retention trial)” value in data set [6] (24 hours after acquisition) was 276.5 ± 19.3 s.

(Values after patent publication EP0435693B1, “Pharmaceutical compositions containing 3-oxygermylpropionic acid polymers for inhibiting the degeneration of cells” (SANWA KAGAKU KENKYUSHO CO., LTD., priority 1989, dated 1991).)
